Data as given in patent publication US7563862B2, “Neural regeneration peptides and methods for their use in treatment of brain damage” (Neuren Pharmaceuticals Limited, priority 2001, dated 2009).
Ends that are not written are not given here.

Key:
MEB-5 cells = assay: haptotactic migration assay, MEB-5 cells; format: cell-based, mouse; conditions: 1 ng/ml coating, 200,000 cells
Method: (§1) NRPs were tested for migration-inducing/chemoattractive activity on mouse neural stem cells, EGF-dependent immortalized mouse neural stem cell line MEB5 and wild-type PC-12 cells in a haptotactic migration assay as described below.
(§2) Initial NRP Coating. Control wells of Transwell plates (Coming) with 12 μm pore size were coated in 1.5 ml of the BSA/PBS vehicle. Remaining plates were coated using various concentrations of NRPs ranging between 1-100 ng/ml (prepared in PBS containing 10 ug/ml BSA). The plates were then incubated at 37° C. for 1 hr to coat. Wells were then rinsed 2× with 1 ml sterile PBS.
(§3) Laminin ([…]) for MEB-5 cells, PDL (50 μg/ml)+Matrigel for mouse primary stem cells and fibronectin (25 ug/ml)+matrigel for PC-12 cells were used as extracellular matrix (ECM) coating for the cells. All ECM compounds were diluted in PBS. 1.5 ml of the ECM per well was incubated for 2 hrs at room temperature. The wells were then rinsed once with Iml serum-free media (e.g. NB/B27) followed by 1 ml PBS wash.
(§4) A 5 ug/mL PDL/PLL mixture (in PBS) was used to coat inserts. Subsequently the inserts were rinsed with MilliQ water. […]

cerebellar microexplants = assay: cerebellar microexplant proliferation assay under injury (BrdU-positive nuclei); format: cell-based, rat
Method: Using the toxins described above, cerebellar explants were exposed for 24 hours, at the beginning of culturing to dilutions of NRP and 0.1 μM BrdU. Subsequently, 80% of the medium was changed without addition of new toxins and NRPs. The cerebellar cultures were fixed as described above after 3 days in vitro. The detection of the incorporated BrdU level was performed as described previously. Under these conditions, over 99% of the cells in the cerebellar population were neurons. Therefore any increase in cell number after NRP administration was most likely due to neuronal cell proliferation.
For statistical analysis of proliferation four fields (each field having an area of 0.65 mm^2) of each fixed cerebellar culture displaying highest density of BrdU-positive nuclei were chosen, and BrdU-positive nuclei were counted. Statistical significance was measured by Student's t-test.
Laminated cerebellar cortex was extracted from P3/4, P7/8 rat pups and triturated through gauze having a 125 μm pore size to obtain uniformly sized microexplants. After centrifugation for 3 minutes at 61 g and the pellet was resuspended in StartV medium (Biochrom) and the suspension seeded on poly-D-lysine coated coverslips in 6-well plates and incubated for 3 hrs to allow adherence, before 1 ml StartV per well was added. As described previously, glutamate/3-NP and NRP were also added. The explants are cultivated at 34° C. at 5% CO2 and 100% humidity for 48-72 hrs. BrdU was administered at start of cultivation for proliferation rate measurements and cells are counted per microscopic field after 48-72 hrs.

mouse neural stem cells = assay: haptotactic migration assay, mouse neural stem cells; format: cell-based
Method: as §1, §2, §3
A 5 ug/mL PDL/PLL mixture (in PBS) was used to coat inserts. Subsequently the inserts were rinsed with MilliQ water.
Transferring to Media and Cell Seeding: Appropriate medium (MEB-5 cells: DMEM-high glucose+N2 (growth medium supplement from Invitrogen)+10 ng/biotin+2 mM L-glutamine, primary stem cells: NSA-medium from Euroclone and for PC-12 cells: NB/B27 medium) was transferred into the 12-well plates. […] Plates were fixed at 1-2 days in vitro (DIV).
Fixation: Inserts were discarded and wells fixed in successive dilutions of PFA (0.4, 1.2, 3 and 4%) for 3-5min in each dilution. […] The wells were rinsed and stored in PBS until counting.
A haptotactic migration assay was performed according to the description of Example 10 using rat NRP-9SD (SEQ ID NO:34) (4 nM) and mouse NRP-7SW (SEQ ID NO:24) (0.4 nM) as attractants in a Boyden chamber

wild-type PC-12 cells = assay: haptotactic migration assay, PC-12 cells; format: cell-based; conditions: 1 ng/ml coating followed by matrigel/PDL, 100,000 cells
Method: as §1, §2, §3, §4

[1] = tested on: OTCs of rat embryonic forebrain; assay: embryonic forebrain OTC migration assay (medial ganglionic eminence to cortical anlage); format: cell-based
Method: OTCs of rat embryonic forebrain were prepared as described. Briefly, pregnant rats at E17 gestation were sacrificed, the fetuses rapidly removed. Coronal slices of the forebrain were cut at 400 μm thickness and placed onto millicell PICM ORG50 membranes (Millipore) in 3 cm Petri dishes containing 1 ml of DMEMI/F12, 6.5 mg/ml glucose, 0.1 mM glutamine and 10% FCS for 34 hrs. Afterwards the medium was exchanged to 1 ml Neurobasal/B27, 6.5 mg/ml glucose, 0.1 mM glutamine, to which 10 μl PBS, NRP, or SDF-1 were added for the indicated concentrations and a small DiI (1,1′-dioctodecycyl-3,3,3′3-tetramethylindocarbocyanine) crystal of uniform size was placed in the medial ganglionic eminence (n=10-15) under a stereomicroscope. After 24 hrs cultivation the total number or migrated neurons dispersed in the ganglionic eminence and cortex were counted under an inverted fluorescent microscope.

| Substance | more MEB-5 cells migrated compared with BSA-vehicle (MEB-5 cells) [%] | up regulation of the proliferation rate observed for injured cerebellar microexplants (cerebellar microexplants; 0.1 pM) [%] | up regulation of the proliferation rate observed for injured cerebellar microexplants (cerebellar microexplants; 100 pM) [%] | enhancement of the proliferation rate (cerebellar microexplants; neurons injured using 3-NP/glutamate) | more NSCs attracted to the culture dish bottom (mouse neural stem cells; 0.4 nM) [fold] | more E-14 cell density compared with BSA-vehicle (mouse neural stem cells; 10 ng/ml coating, 400,000 cells) [%] | potency relative to SDF-1 (mouse neural stem cells; SDF-1 100 nM vs NRP-7SW 0.2 nM) | more PC-12 cells migrated compared with BSA vehicle (wild-type PC-12 cells) [%] | increase in number of migrating neuronal precursor cells [1] [fold] | optimum dose [1] [nM] |
| --- | --- | --- | --- | --- | --- | --- | --- | --- | --- | --- |
| KDPEARRAPGSLHPCLAAS-NH2 [NRP-2 segment KS, 19-mer fragment of NRP-2] | 109 | – | – | – | – | – | – | – | – | – |
| SEPEARRAPGRKGGVVCASLAADW-NH2 [NRP-7 segment SW, 24-mer form of mouse NRP-7] | – | 252.6 | 123.7 | more than 200% | 2 | 35 | about 500 times | 333 | 5 | 1 |
